Read-outs that look alike come from different tables or passages of the source.

This assay has as its system Gli1-mediated transcription. As to the kind of experiment: Gli1-mediated transcriptional luciferase reporter assay. The assay is classed as cell-based. Here is the method:
Gli1-mediated transcriptional luciferase reporter assay was performed using Shh-LIGHT2 cells in order to evaluate the effects on activation and inhibition of Gli1-mediated transcription by the compounds of the disclosure. Brief assay procedure is provided below. […] Shh-LIGHT2 cells were harvested from about 80% confluent 10-cm dish using 0.25% Trypsin-EDTA solution. Medium was removed, and cells were washed with 5 mL DPBS and aspirated. Then, 1 mL 0.25% Trypsin-EDTA solution was added to a 10-cm dish. The dish was placed in the incubator for 1-3 minutes, or until cells have detached. 3 mL of cell growth medium (DMEM, 10% FBS, 1% PenStrep, 1% sodium pyruvate, and 1% GlutaMax) was added to the 10-cm dish, and the contents were transferred to a conical tube. […] The cell assay plate was removed from incubator after cells reached confluency. The culture medium was then manually removed from the cell plates, and the plates were centrifuged at 200 rpm for 30 seconds. […] After 30 min incubation of antagonist, cells were stimulated with agonist (purmorphamine, 5 μL, 1.5 μM final), then incubate for 24 h at 37° C./5% CO2. […] Luciferase assay: After incubation, the cell assay plate was allowed to acclimate to room temperature. Then, 20 μL of Duo-Glo® Luciferase Reagent (Promega) was added to each well of cell assay plate. The plate was briefly spun down, mixed, and incubated for 30 minutes at room temperature. The cell plate was read using luminometer for firefly luminescence activity. Then, 20 μL of Duo-Glo® Step&Glo® Reagent (Promega) was added to each well of cell assay plate. The plate was briefly spun down, mixed, and incubated for 30 minutes at room temperature. The cell plate was read using luminometer for Renilla luminescence activity. Ratio of firefly: Renilla luminescence was calculated for each well. The compound well ratio was normalized to the ratio from a control well.
In general terms: In a reporter assay the amount or activity of a reporter protein is the signal.

Where [1] appears, read: Shh-LIGHT2 cells, antagonist mode, purmorphamine 1.5 μM stimulation, 24 h, firefly luminescence, read-out: Gli1 IC50 firefly.
The mark [2] stands for this setting: Shh-LIGHT2 cells, antagonist mode, purmorphamine 1.5 μM stimulation, 24 h, ratio of firefly:Renilla luminescence, read-out: Gli1 IC50 firefly:Renilla ratio.

Consider `Clc1ccccc1-c1nc2c([nH]1)CN(C1Cc3cccc(Cl)c3C1)CC2` (racemic) [Example 12, 5-(4-chloro-2,3-dihydro-1H-inden-2-yl)-2-(2-chlorophenyl)-4,5,6,7-tetrahydro-3H-imidazo[4,5-c]pyridine], for which the IC50 is, setting by setting: under setting [1], 100 to 490 nM; under setting [2], 100 to 490 nM.

As for `O[C@H]1c2cc(Cl)ccc2C[C@@H]1N1CCc2nc(-c3ccccc3Cl)[nH]c2C1` (relative stereo) [Example 99, trans-6-chloro-2-(2-(2-chlorophenyl)-3,4,6,7-tetrahydro-5H-imidazo[4,5-c]pyridin-5-yl)-2,3-dihydro-1H-inden-1-ol], the IC50 reads like this: under setting [1], 1000 to 50000 nM; under setting [2], 1000 to 50000 nM.

Regarding `Clc1ccccc1-c1nc2c([nH]1)CN(C1CCc3cccc(Cl)c3C1)CC2` (centres unmarked) [Example 1, 5-(8-chloro-1,2,3,4-tetrahydronaphthalen-2-yl)-2-(2-chlorophenyl)-4,5,6,7-tetrahydro-3H-imidazo[4,5-c]pyridine], the IC50 under setting [1] is less than 100 nM and the IC50 under setting [2] was in the range of 100 to 490 nM.

With `Clc1ccccc1-c1nc2c([nH]1)CN([C@@H]1CCc3cccc(Cl)c3C1)CC2` [Example 1-R, (R)-5-(8-chloro-1,2,3,4-tetrahydronaphthalen-2-yl)-2-(2-chlorophenyl)-4,5,6,7-tetrahydro-3H-imidazo[4,5-c]pyridine], the IC50 was in the range of 100 to 490 nM under setting [1] and 100 to 490 nM under setting [2].

Take `Clc1ccccc1-c1nc2c([nH]1)CN([C@H]1CCc3cccc(Cl)c3C1)CC2` [Example 1-S, (S)-5-(8-chloro-1,2,3,4-tetrahydronaphthalen-2-yl)-2-(2-chlorophenyl)-4,5,6,7-tetrahydro-3H-imidazo[4,5-c]pyridine]: the IC50 is 100 to 490 nM under setting [1] and 100 to 490 nM under setting [2].

In the case of `Clc1ccccc1-c1nc2c([nH]1)CN(C1Cc3ccccc3C1)CC2` [Example 2, 2-(2-chlorophenyl)-5-(2,3-dihydro-1H-inden-2-yl)-4,5,6,7-tetrahydro-3H-imidazo[4,5-c]pyridine], the IC50 runs as follows: (Shh Light2, 24 h, read-out: Gli1 IC50 firefly) 1000 to 50000 nM; (Shh Light2, 24 h, read-out: Gli1 IC50 firefly:Renilla ratio) 1000 to 50000 nM.

Consider `Clc1ccc2c(c1)CC(N1CCc3nc(-c4ccccc4Cl)[nH]c3C1)CO2` (centres unmarked) [Example 3, 5-(6-chlorochroman-3-yl)-2-(2-chlorophenyl)-4,5,6,7-tetrahydro-3H-imidazo[4,5-c]pyridine], for which the IC50 reads like this: under setting [1], 500 to 990 nM; under setting [2], 500 to 990 nM.

Take `COc1cccc(-c2nc3c([nH]2)CN(C2CCc4ccc(OC)cc4C2)CC3)c1` (centres unmarked) [Example 4, 5-(7-methoxy-1,2,3,4-tetrahydronaphthalen-2-yl)-2-(3-methoxyphenyl)-4,5,6,7-tetrahydro-3H-imidazo [4,5-c]pyridine]: the IC50 is, setting by setting: under setting [1], 500 to 990 nM; under setting [2], 1000 to 50000 nM.

Consider `Fc1ccc2c(c1)CC(N1CCc3nc(-c4ccccc4F)[nH]c3C1)CC2` (centres unmarked) [Example 5, 5-(7-fluoro-1,2,3,4-tetrahydronaphthalen-2-yl)-2-(2-fluorophenyl)-4,5,6,7-tetrahydro-3H-imidazo[4,5-c]pyridine], for which the IC50 under setting [1] lay in the range of 1000 to 50000 nM and the IC50 under setting [2] lay in the range of 1000 to 50000 nM.

Take `Fc1ccccc1-c1nc2c([nH]1)CN(C1CCc3ccc(Cl)cc3C1)CC2` (centres unmarked) [Example 6, 5-(7-chloro-1,2,3,4-tetrahydronaphthalen-2-yl)-2-(2-fluorophenyl)-4,5,6,7-tetrahydro-3H-imidazo[4,5-c]pyridine]: the IC50 lay within 1000 to 50000 nM under setting [1] and 1000 to 50000 nM under setting [2].

Turning to `COc1ccc2c(c1)CCC(N1CCc3nc(-c4ccccc4F)[nH]c3C1)C2` (centres unmarked) [Example 7, 2-(2-fluorophenyl)-5-(6-methoxy-1,2,3,4-tetrahydronaphthalen-2-yl)-4,5,6,7-tetrahydro-3H-imidazo[4,5-c]pyridine], the IC50 lay within 1000 to 50000 nM under setting [1] and 1000 to 50000 nM under setting [2].

`COc1ccc2c(c1)CC(N1CCc3nc(-c4ccccc4F)[nH]c3C1)CC2` (centres unmarked) [Example 8, 2-(2-fluorophenyl)-5-(7-methoxy-1,2,3,4-tetrahydronaphthalen-2-yl)-4,5,6,7-tetrahydro-3H-imidazo[4,5-c]pyridine]: the IC50 reads like this: under setting [1], 1000 to 50000 nM; under setting [2], 1000 to 50000 nM.

For the molecule `COc1cccc2c1CC(N1CCc3nc(-c4ccccc4F)[nH]c3C1)CC2` (centres unmarked) [Example 9, 2-(2-fluorophenyl)-5-(8-methoxy-1,2,3,4-tetrahydronaphthalen-2-yl)-4,5,6,7-tetrahydro-3H-imidazo[4,5-c]pyridine], the IC50 under setting [1] fell in the range of 500 to 990 nM and the IC50 under setting [2] is 1000 to 50000 nM.

For `COc1cccc2c1CCC(N1CCc3nc(-c4ccccc4Cl)[nH]c3C1)C2` (centres unmarked) [Example 10, 2-(2-chlorophenyl)-5-(5-methoxy-1,2,3,4-tetrahydronaphthalen-2-yl)-4,5,6,7-tetrahydro-3H-imidazo[4,5-c]pyridine], the IC50 by setting is: under setting [1], 100 to 490 nM; under setting [2], 100 to 490 nM.

Turning to `Fc1ccccc1-c1nc2c([nH]1)CN(C1CCc3cccc(F)c3C1)CC2` (centres unmarked) [Example 11, 5-(8-fluoro-1,2,3,4-tetrahydronaphthalen-2-yl)-2-(2-fluorophenyl)-4,5,6,7-tetrahydro-3H-imidazo[4,5-c]pyridine], the IC50 runs as follows: under setting [1], 1000 to 50000 nM; under setting [2], 1000 to 50000 nM.

Consider `Clc1ccc2c(c1)CC(N1CCc3nc(-c4ccccc4Cl)[nH]c3C1)CC2` (centres unmarked) [Example 13, 5-(7-chloro-1,2,3,4-tetrahydronaphthalen-2-yl)-2-(2-chlorophenyl)-4,5,6,7-tetrahydro-3H-imidazo[4,5-c]pyridine], for which the IC50 by setting is: under setting [1], 100 to 490 nM; under setting [2], 100 to 490 nM.

As to `OC1c2c(Cl)cccc2CCC1N1CCc2nc(-c3ccccc3Cl)[nH]c2C1` (centres unmarked) [Example 14, 8-chloro-2-(2-(2-chlorophenyl)-3,4,6,7-tetrahydro-5H-imidazo[4,5-c]pyridin-5-yl)-1,2,3,4-tetrahydronaphthalen-1-ol], the IC50 by setting is: under setting [1], 1000 to 50000 nM; under setting [2], 1000 to 50000 nM.

Take `COc1ccc2c(c1)CC(N1CCc3nc(-c4ccccc4Cl)[nH]c3C1)CC2` (centres unmarked) [Example 15, 2-(2-chlorophenyl)-5-(7-methoxy-1,2,3,4-tetrahydronaphthalen-2-yl)-4,5,6,7-tetrahydro-3H-imidazo[4,5-c]pyridine]: the IC50 was in the range of 100 to 490 nM under setting [1] and 100 to 490 nM under setting [2].

Take `COc1cccc2c1CC(N1CCc3nc(-c4ccccc4Cl)[nH]c3C1)CC2` (centres unmarked) [Example 16, 2-(2-chlorophenyl)-5-(8-methoxy-1,2,3,4-tetrahydronaphthalen-2-yl)-4,5,6,7-tetrahydro-3H-imidazo[4,5-c]pyridine]: the IC50 is less than 100 nM under setting [1] and 100 to 490 nM under setting [2].

With `Clc1cnccc1-c1nc2c([nH]1)CN(C1CCc3cccc(Cl)c3C1)CC2` (centres unmarked) [Example 17, 5-(8-chloro-1,2,3,4-tetrahydronaphthalen-2-yl)-2-(3-chloropyridin-4-yl)-4,5,6,7-tetrahydro-3H-imidazo[4,5-c]pyridine], the IC50 fell in the range of 500 to 990 nM under setting [1] and 1000 to 50000 nM under setting [2].

As for `Cn1c(-c2ccccc2Cl)nc2c1CN(C1CCc3cccc(Cl)c3C1)CC2` (centres unmarked) [Example 18, 5-(8-chloro-1,2,3,4-tetrahydronaphthalen-2-yl)-2-(2-chlorophenyl)-3-methyl-4,5,6,7-tetrahydro-3H-imidazo[4,5-c]pyridine], the IC50 by setting is: under setting [1], 1000 to 50000 nM; under setting [2], 1000 to 50000 nM.

With `CN1C2=C(CCN([C@@H]3CCc4cccc(Cl)c4C3)C2)NC1c1ccccc1Cl` (stereo partly drawn) [Example 18-R, 5-((R)-8-chloro-1,2,3,4-tetrahydronaphthalen-2-yl)-2-(2-chlorophenyl)-3-methyl-2,3,4,5,6,7-hexahydro-1H-imidazo[4,5-c]pyridine], the IC50 runs as follows: under setting [1], less than 100 nM; under setting [2], less than 100 nM.

Regarding `CN1C2=C(CCN([C@H]3CCc4cccc(Cl)c4C3)C2)NC1c1ccccc1Cl` (stereo partly drawn) [Example 18-S, 5-((S)-8-chloro-1,2,3,4-tetrahydronaphthalen-2-yl)-2-(2-chlorophenyl)-3-methyl-2,3,4,5,6,7-hexahydro-1H-imidazo[4,5-c]pyridine], the IC50 is 100 to 490 nM under setting [1] and 100 to 490 nM under setting [2].

Regarding `Clc1ccc2c(c1)CC(N1CCc3nc(-c4ccccc4Cl)[nH]c3C1)C2` (centres unmarked) [Example 19, 5-(5-chloro-2,3-dihydro-1H-inden-2-yl)-2-(2-chlorophenyl)-4,5,6,7-tetrahydro-3H-imidazo[4,5-c]pyridine], the IC50 lay in the range of 100 to 490 nM under setting [1] and 100 to 490 nM under setting [2].

In the case of `O[C@@H]1Cc2ccccc2C[C@H]1N1CCc2nc(-c3ccccc3Cl)[nH]c2C1` [Example 20, (2R,3R)-3-(2-(2-chlorophenyl)-3,4,6,7-tetrahydro-5H-imidazo[4,5-c]pyridin-5-yl)-1,2,3,4-tetrahydronaphthalen-2-ol], the IC50 was in the range of 1000 to 50000 nM under setting [1] and 1000 to 50000 nM under setting [2].

For the origin of these results see patent US12209092B2, “Inhibitors of GLI1 as therapeutic agents” (NEW YORK UNIVERSITY, priority 2018, dated 2025).
